According to patent publication US7915291B2, “Hepatitis C virus inhibitors” (Bristol-Myers Squibb Company, priority 2002, dated 2011):
Where two headings read alike, the source gives them in different places.

Test system: HCV replicon in Huh7 cells
Assay: HCV replicon cell-based assay
Set-up: species or system HCV strain 1B
Details: Hepatitis C virus, Huh-7, HCV replicon, Huh7 cells

SMILES: C=C[C@@H]1C[C@]1(NC(=O)[C@@H]1C[C@@H](Oc2nc(C3CC3)cc3ccccc23)CN1C(=O)[C@@H](NC(=O)OC(C)(C)C)C(C)(C)C)C(=O)NS(=O)(=O)C1CC1 [Compound 34]
- EC50 (read-out: EC50 range): 100 to 1000 nM
- EC50 (read-out: EC50 value in the replicon assay): 166 nM
